Target: T1, human full-length recombinant PKC βII (Homo sapiens, UniProt P05771)
T1 construct: Active human full-length recombinant PKC βII; purchased Invitrogen GmbH, Darmstadt, Germany
Assay: Determination of PKC βII inhibition (Caliper mobility-shift kinase assay, Fluorescein-RFARKGSLRQKNV peptide substrate)
Format: biochemical
Conditions: example compounds at a final concentration of 1.14 μM (±0.15 μM)
Procedure: Determination of PKC βII Inhibition
PKC βII Inhibition was Determined According to the Following Protocol:
Active human full-length recombinant PKC βII and the peptide substrate, Fluorescein-RFARKGSLRQKNV, were purchased from Invitrogen GmbH, Darmstadt, Germany. Adenosine-5′-triphosphate (ATP), bovine serum albumine (BSA), dimethylsulphoxide (DMSO), 4-(2-hydroxyethyl)piperazine-1-ethanesulfonic acid (Hepes), Triton X-100, 1,2-Dioleoyl-sn-glycerol (DAG), L-G-Phosphatidyl-L-serine (PS), calcium chloride (CaCl2), and Pluronic F-68 were purchased from Sigma-Aldrich, Munich, Germany. Magnesium chloride, 1 M sodium hydroxide solution, 1M hydrochloric acid solution and EDTA were obtained from Merck Biosciences, Darmstadt, Germany.
Test compounds were diluted to three times the test concentration in buffer 1 (30 mM Hepes-NaOH, pH 7.4, 0.01% Pluronic F-68 and 3% (v/v) DMSO). The PKC enzyme was diluted to a concentration of 30 ng/ml in buffer 2 (30 mM Hepes-NaOH, pH 7.4, 15 mM MgCl2, 150 μM CaCl2, 150 μg/ml PS, 60 μg/ml DAG, and 0.045% (w/v) Triton X-100). The peptide substrate and ATP were diluted to concentrations of 3 μM and 120 μM, respectively, in buffer 2. Two μl of the compound solution were mixed with 2 μl of the diluted enzyme in a 384-well small volume microtiter plate (Greiner, Bio-One, Frickenhausen, Germany), and the kinase reaction was initiated by addition of 2 μl of the solution containing peptide substrate and ATP. After 60 min incubation at 32° C., the reaction was stopped by addition of 20 μl of a solution containing 130 mM Hepes-NaOH, pH 7.4. 0.0195% (v/v) Brij-35, 6.5 mM EDTA. 0.13% chip coating reagent 3 (Caliper Lifescience Inc, Hopkinton, Mass.) and 6.5% (v/v) DMSO. Phosphorylation of the substrate peptide was then detected on a Caliper 3000 instrument essentially as described by Pommereau et al (J. Biomol. Screening 2004, 9(5), 409-416). Separation conditions were as follows: Pressure −0.8 psi, upstream voltage −3000 V, downstream voltage −800 V. Positive controls (buffer 1 instead of compound) and negative controls (buffer 1 instead of compound and buffer 2 instead of kinase solution) were run in parallel on each plate. Fractional turnover (R) was determined as the height of the peak of the phosphorylated peptide product divided by the sum of the unphosphorylated substrate and phosphorylated product peak heights. Percent-inhibition values for the test compounds were determined using the formula % Inhibition=100*(1−(Rcompound−Rnegative control)/(Rpositive control−Rnegative control).
In the following table % inhibition values observed with example compounds at a final concentration of 1.14 μM (±0.15 μM) are listed: […]

T1 sequence (P05771 1-673 isoform P05771-2): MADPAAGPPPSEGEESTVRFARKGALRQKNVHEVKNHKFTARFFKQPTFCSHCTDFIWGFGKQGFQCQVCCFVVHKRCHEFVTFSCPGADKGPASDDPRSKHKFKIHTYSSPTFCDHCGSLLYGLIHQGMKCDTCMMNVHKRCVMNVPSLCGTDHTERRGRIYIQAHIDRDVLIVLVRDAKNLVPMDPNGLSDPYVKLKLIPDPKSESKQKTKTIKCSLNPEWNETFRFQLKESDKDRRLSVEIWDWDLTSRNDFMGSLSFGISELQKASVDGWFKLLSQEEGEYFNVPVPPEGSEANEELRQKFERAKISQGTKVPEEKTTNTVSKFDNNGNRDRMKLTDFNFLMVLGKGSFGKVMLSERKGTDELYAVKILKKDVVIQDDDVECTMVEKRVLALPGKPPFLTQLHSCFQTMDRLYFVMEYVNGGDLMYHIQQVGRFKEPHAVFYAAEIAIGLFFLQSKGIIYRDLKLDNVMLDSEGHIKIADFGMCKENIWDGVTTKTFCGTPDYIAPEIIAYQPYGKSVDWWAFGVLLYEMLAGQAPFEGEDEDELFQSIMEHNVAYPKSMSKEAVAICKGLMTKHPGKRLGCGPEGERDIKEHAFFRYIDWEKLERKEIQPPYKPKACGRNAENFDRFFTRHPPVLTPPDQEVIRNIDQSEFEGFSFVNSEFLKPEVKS

SMILES | inhibition at 1.14 µM
Cc1n[nH]c2nc(-c3ccc(O)cc3)cc(C(=O)NC[C@H]3CC[C@@H](N)CC3)c12 [Example 105, 6-(4-Hydroxy-phenyl)-3-methyl-1H-pyrazolo[3,4-b]pyridine-4-carboxylic acid (cis-4-amino-cyclohexylmethyl)-amide] | 53%
Cc1n[nH]c2nc(-c3ccc(O)cc3)cc(C(=O)NC3CCCC(N)C3)c12 (stereo not drawn) [Example 254, 6-(4-Hydroxy-phenyl)-3-methyl-1H-pyrazolo[3,4-b]pyridine-4-carboxylic acid (3-amino-cyclohexyl)-amide] | 80%
Cc1n[nH]c2nc(-c3ccc(O)cc3)cc(C(=O)NC3CCNC3)c12 (stereo not drawn) [Example 106, 6-(4-Hydroxy-phenyl)-3-methyl-1H-pyrazolo[3,4-b]pyridine-4-carboxylic acid pyrrolidin-3-ylamide] | 77%
Cc1n[nH]c2nc(-c3ccc(O)cc3)cc(C(=O)N3CC4CCCN4CC3c3ccccc3)c12 (stereo not drawn) [Example 282, [6-(4-Hydroxy-phenyl)-3-methyl-1H-pyrazolo[3,4-b]pyridin-4-yl]-(3-phenyl-hexahydro-pyrrolo[1,2-a]pyrazin-2-yl)-methanone] | 73%
Cc1n[nH]c2nc(-c3ccc(O)c(F)c3)cc(C(=O)NC3CCN(C4CCCCC4)CC3)c12 [Example 360, 6-(3-Fluoro-4-hydroxy-phenyl)-3-methyl-1H-pyrazolo[3,4-b]pyridine-4-carboxylic acid (1-cyclohexyl-piperidin-4-yl)-amide] | 52%
Cc1n[nH]c2nc(-c3ccc(O)cc3)cc(C(=O)N3CCCC4CNCCC43)c12 (stereo not drawn) [Example 230, [6-(4-Hydroxy-phenyl)-3-methyl-1H-pyrazolo[3,4-b]pyridin-4-yl]-(octahydro-[1,6]naphthyridin-1-yl)-methanone] | 93%
COC(=O)[C@H]1CNCCN1C(=O)c1cc(-c2ccc(O)cc2)nc2[nH]nc(C)c12 [Example 206, (R)-1-[6-(4-Hydroxy-phenyl)-3-methyl-1H-pyrazolo[3,4-b]pyridine-4-carbonyl]-piperazine-2-carboxylic acid methyl ester] | 98%
CCc1n[nH]c2nc(-c3ccc(O)cc3)cc(C(=O)N3CCCN(CC)CC3)c12 [Example 187, (4-Ethyl-[1,4]diazepan-1-yl)-[3-ethyl-6-(4-hydroxy-phenyl)-1H-pyrazolo[3,4-b]pyridin-4-yl]-methanone] | 58%
COc1cc(-c2cc(C(=O)N3CCNCC3)c3c(C)n[nH]c3n2)ccc1O [Example 10, [6-(4-Hydroxy-3-methoxy-phenyl)-3-methyl-1H-pyrazolo[3,4-b]pyridin-4-yl]-piperazin-1-yl-methanone] | 29%
Cc1cc(O)ccc1-c1cc(C(=O)N2CCNCC2)c2c(C)n[nH]c2n1 [Example 13, [6-(4-Hydroxy-2-methyl-phenyl)-3-methyl-1H-pyrazolo[3,4-b]pyridin-4-yl]-piperazin-1-yl-methanone] | 96%
Cc1n[nH]c2nc(-c3ccc(O)cc3)cc(C(=O)NCC3CCCNC3)c12 (stereo not drawn) [Example 243, 6-(4-Hydroxy-phenyl)-3-methyl-1H-pyrazolo[3,4-b]pyridine-4-carboxylic acid (piperidin-3-ylmethyl)-amide] | 78%
Cc1n[nH]c2nc(-c3ccc(O)cc3)cc(C(=O)NC3CCN(C4CCCCC4)CC3)c12 [Example 279, 6-(4-Hydroxy-phenyl)-3-methyl-1H-pyrazolo[3,4-b]pyridine-4-carboxylic acid (1-cyclohexyl-piperidin-4-yl)-amide] | 78%
COc1cccc(C2CNCCN2C(=O)c2cc(-c3ccc(O)cc3C)nc3[nH]nc(C)c23)c1 (stereo not drawn) [Example 146, [6-(4-Hydroxy-2-methyl-phenyl)-3-methyl-1H-pyrazolo[3,4-b]pyridin-4-yl]-[2-(3-methoxy-phenyl)-piperazin-1-yl]-methanone] | 97%
Cc1n[nH]c2nc(-c3ccc(O)c(F)c3)cc(C(=O)NC3CC4(CCNCC4)c4ccccc43)c12 (stereo not drawn) [Example 299, 6-(3-Fluoro-4-hydroxy-phenyl)-3-methyl-1H-pyrazolo[3,4-b]pyridine-4-carboxylic acid (2,3-dihydro-spiro[1H-indene-1,4′-piperidin]-3-yl)-amide] | 92%
Cc1n[nH]c2nc(-c3ccc(O)c(F)c3)cc(C(=O)N3CCNCC3Cc3ccccc3)c12 (stereo not drawn) [Example 300, (2-Benzyl-piperazin-1-yl)-[6-(3-fluoro-4-hydroxy-phenyl)-3-methyl-1H-pyrazolo[3,4-b]pyridin-4-yl]-methanone] | 74%
Cc1n[nH]c2nc(-c3ccc(O)cc3)cc(C(=O)N3CCNCC3c3ccc(Br)cc3)c12 (stereo not drawn) [Example 89, [2-(4-Bromo-phenyl)-piperazin-1-yl]-[6-(4-hydroxy-phenyl)-3-methyl-1H-pyrazolo[3,4-b]pyridin-4-yl]-methanone] | 92%
CNC1CCN(C(=O)c2cc(-c3ccc(O)cc3)nc3[nH]nc(C)c23)C1 (stereo not drawn) [Example 240, [6-(4-Hydroxy-phenyl)-3-methyl-1H-pyrazolo[3,4-b]pyridin-4-yl]-(3-methylamino-pyrrolidin-1-yl)-methanone] | 94%
Cc1n[nH]c2nc(-c3ccc(O)cc3)cc(C(=O)N3CCC(CN4CCCCC4)CC3)c12 [Example 287, [6-(4-Hydroxy-phenyl)-3-methyl-1H-pyrazolo[3,4-b]pyridin-4-yl]-(4-piperidin-1-ylmethyl-piperidin-1-yl)-methanone] | 34%
Cc1n[nH]c2nc(-c3ccc(O)c(F)c3)cc(C(=O)N3CCC4(CC3)CNCCO4)c12 [Example 342, [6-(3-Fluoro-4-hydroxy-phenyl)-3-methyl-1H-pyrazolo[3,4-b]pyridin-4-yl]-(1-oxa-4,9-diaza-spiro[5.5]undec-9-yl)-methanone] | 60%
Cc1n[nH]c2nc(-c3ccc(O)cc3F)cc(C(=O)N3CCNCC3(C)c3ccccc3)c12 (stereo not drawn) [Example 435, [6-(2-Fluoro-4-hydroxy-phenyl)-3-methyl-1H-pyrazolo[3,4-b]pyridin-4-yl]-(2-methyl-2-phenyl-piperazin-1-yl)-methanone] | 97%
Cc1n[nH]c2nc(-c3ccc(O)cc3)cc(C(=O)NC3CN4CCC3CC4)c12 (stereo not drawn) [Example 207, 6-(4-Hydroxy-phenyl)-3-methyl-1H-pyrazolo[3,4-b]pyridine-4-carboxylic acid (1-aza-bicyclo[2.2.2]oct-3-yl)-amide] | 94%
Cc1n[nH]c2nc(-c3ccc(O)cc3)cc(C(=O)NC3CCC(N)CC3)c12 (stereo not drawn) [Example 231, 6-(4-Hydroxy-phenyl)-3-methyl-1H-pyrazolo[3,4-b]pyridine-4-carboxylic acid (4-amino-cyclohexyl)-amide] | 84%
Cc1n[nH]c2nc(-c3ccc(O)cc3F)cc(C(=O)NCCC(C)(C)N)c12 [Example 67, 6-(2-Fluoro-4-hydroxy-phenyl)-3-methyl-1H-pyrazolo[3,4-b]pyridine-4-carboxylic acid (3-amino-3-methyl-butyl)-amide] | 86%
Cc1n[nH]c2nc(-c3ccc(O)cc3)cc(C(=O)NCC3CCNC3)c12 (stereo not drawn) [Example 216, 6-(4-Hydroxy-phenyl)-3-methyl-1H-pyrazolo[3,4-b]pyridine-4-carboxylic acid (pyrrolidin-3-ylmethyl)-amide] | 92%
Cc1n[nH]c2nc(-c3ccc(O)cc3)cc(C(=O)NC[C@H]3CC[C@H](N)CC3)c12 [Example 130, 6-(4-Hydroxy-phenyl)-3-methyl-1H-pyrazolo[3,4-b]pyridine-4-carboxylic acid (trans-4-amino-cyclohexylmethyl)-amide] | 47%
Cc1n[nH]c2nc(-c3ccc(O)cc3)cc(C(=O)N[C@H]3C[C@@H]3N)c12 (racemic) [Example 251, 6-(4-Hydroxy-phenyl)-3-methyl-1H-pyrazolo[3,4-b]pyridine-4-carboxylic acid (trans-2-amino-cyclopropyl)-amide] | 53%
C[C@H]1CN(C(=O)c2cc(-c3ccc(O)cc3)nc3[nH]nc(C(F)(F)F)c23)CCN1 [Example 397, [6-(4-Hydroxy-phenyl)-3-trifluoromethyl-1H-pyrazolo[3,4-b]pyridin-4-yl]-((S)-3-methyl-piperazin-1-yl)-methanone] | 73%
